{"source": "PubChem BioAssay AID1963985", "about": "(Molecular Pharmacology Branch, DTP, NCI, 2024)", "system": "252836-082-R-J2-PDC tumor spheroids, viability", "assay": "Anticancer human tumor 252836-082-R-J2-PDC patient-derived head and neck squamous cell carcinoma cell line growth inhibition [PI3K]", "details": "spheroids with HUVEC and MSC; for IC50: curve of first compound; for viability, T/C: stronger effect = lower value", "summary_of_the_method": "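Complex 3D spheroids (cancer cells + endothelial HUVEC + mesenchymal stem cells); drug pairs of targeted agent x inavolisib/alpelisib/duvelisib/copanlisib; half-log series from ~Cmax, max 10 microM if Cmax unknown; endpoint viability.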", "key": {"[1]": {"details": "second compound 0.0316 µM, first compound 0.0316 µM"}, "[2]": {"details": "second compound 0.0316 µM, first compound 0.1 µM"}, "[3]": {"details": "second compound 0.1 µM, first compound 0.0316 µM"}, "[4]": {"details": "second compound 0.1 µM, first compound 0.1 µM"}, "[5]": {"details": "second compound 0.316 µM, first compound 0.0316 µM"}, "[6]": {"details": "second compound 0.316 µM, first compound 0.1 µM"}, "[7]": {"details": "second compound 1 µM, first compound 0.0316 µM"}, "[8]": {"details": "second compound 1 µM, first compound 0.1 µM"}}, "data": [{"molecule": "Cn1ncnc1[C@H]1c2n[nH]c(=O)c3cc(F)cc(c23)N[C@@H]1c1ccc(F)cc1", "note": "+ COc1c(OCCCN2CCOCC2)ccc2c3n(c(=NC(=O)c4cnc(N)nc4)nc12)CCN3;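 note: spheroids exposed to agents for seven days before readout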;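 for viability, T/C: percent of vehicle DMSO control viability so 100% = untreated growth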", "values": [{"measurement": "IC50", "setting": "second compound 0.00316 µM", "value": 0.0906, "unit": "µM"}, {"measurement": "IC50", "setting": "second compound 0.01 µM", "value": 0.0441, "unit": "µM"}, {"measurement": "IC50", "setting": "second compound 0.0316 µM", "value": 0.013, "unit": "µM"}, {"measurement": "IC50", "setting": "second compound 0.1 µM", "value": "< 0.000316", "unit": "µM"}, {"measurement": "IC50", "setting": "second compound 0.316 µM", "value": "< 0.000316", "unit": "µM"}, {"measurement": "IC50", "setting": "second compound 1 µM", "value": "< 0.000316", "unit": "µM"}, {"measurement": "viability, T/C", "setting": "second compound 0.00316 µM, first compound 0.000316 µM", "value": 84.3, "unit": "%"}, {"measurement": "viability, T/C", "setting": "second compound 0.00316 µM, first compound 0.001 µM", "value": 88.2, "unit": "%"}, {"measurement": "viability, T/C", "setting": "second compound 0.00316 µM, first compound 0.00316 µM", "value": 86.4, "unit": "%"}, {"measurement": "viability, T/C", "setting": "second compound 0.00316 µM, first compound 0.01 µM", "value": 72.1, "unit": "%"}, {"measurement": "viability, T/C", "setting": "second compound 0.00316 µM, first compound 0.0316 µM", "value": 59.7, "unit": "%"}, {"measurement": "viability, T/C", "setting": "second compound 0.00316 µM, first compound 0.1 µM", "value": 48.6, "unit": "%"}, {"measurement": "viability, T/C", "setting": "second compound 0.01 µM, first compound 0.000316 µM", "value": 80.1, "unit": "%"}, {"measurement": "viability, T/C", "setting": "second compound 0.01 µM, first compound 0.001 µM", "value": 67.5, "unit": "%"}, {"measurement": "viability, T/C", "setting": "second compound 0.01 µM, first compound 0.00316 µM", "value": 80.7, "unit": "%"}, {"measurement": "viability, T/C", "setting": "second compound 0.01 µM, first compound 0.01 µM", "value": 72.8, "unit": "%"}, {"measurement": "viability, T/C", "setting": "second compound 0.01 µM, first compound 0.0316 µM", "value": 55.6, "unit": "%"}, {"measurement": "viability, T/C", "setting": "second compound 0.01 µM, first compound 0.1 µM", "value": 36.2, "unit": "%"}, {"measurement": "viability, T/C", "setting": "second compound 0.0316 µM, first compound 0.000316 µM", "value": 49.3, "unit": "%"}, {"measurement": "viability, T/C", "setting": "second compound 0.0316 µM, first compound 0.001 µM", "value": 60.8, "unit": "%"}, {"measurement": "viability, T/C", "setting": "second compound 0.0316 µM, first compound 0.00316 µM", "value": 52, "unit": "%"}, {"measurement": "viability, T/C", "setting": "second compound 0.0316 µM, first compound 0.01 µM", "value": 52.1, "unit": "%"}, {"measurement": "viability, T/C", "setting": "[1]", "value": 44.2, "unit": "%"}, {"measurement": "viability, T/C", "setting": "[2]", "value": 24.4, "unit": "%"}, {"measurement": "viability, T/C", "setting": "second compound 0.1 µM, first compound 0.000316 µM", "value": 33.4, "unit": "%"}, {"measurement": "viability, T/C", "setting": "second compound 0.1 µM, first compound 0.001 µM", "value": 35.1, "unit": "%"}, {"measurement": "viability, T/C", "setting": "second compound 0.1 µM, first compound 0.00316 µM", "value": 34.8, "unit": "%"}, {"measurement": "viability, T/C", "setting": "second compound 0.1 µM, first compound 0.01 µM", "value": 30.9, "unit": "%"}, {"measurement": "viability, T/C", "setting": "[3]", "value": 19, "unit": "%"}, {"measurement": "viability, T/C", "setting": "[4]", "value": 11.8, "unit": "%"}, {"measurement": "viability, T/C", "setting": "second compound 0.316 µM, first compound 0.000316 µM", "value": 19.1, "unit": "%"}, {"measurement": "viability, T/C", "setting": "second compound 0.316 µM, first compound 0.001 µM", "value": 16, "unit": "%"}, {"measurement": "viability, T/C", "setting": "second compound 0.316 µM, first compound 0.00316 µM", "value": 13.6, "unit": "%"}, {"measurement": "viability, T/C", "setting": "second compound 0.316 µM, first compound 0.01 µM", "value": 9.81, "unit": "%"}, {"measurement": "viability, T/C", "setting": "[5]", "value": 8.53, "unit": "%"}, {"measurement": "viability, T/C", "setting": "[6]", "value": 6.35, "unit": "%"}, {"measurement": "viability, T/C", "setting": "second compound 1 µM, first compound 0.000316 µM", "value": 4.84, "unit": "%"}, {"measurement": "viability, T/C", "setting": "second compound 1 µM, first compound 0.001 µM", "value": 4.33, "unit": "%"}, {"measurement": "viability, T/C", "setting": "second compound 1 µM, first compound 0.00316 µM", "value": 3.36, "unit": "%"}, {"measurement": "viability, T/C", "setting": "second compound 1 µM, first compound 0.01 µM", "value": 2.93, "unit": "%"}, {"measurement": "viability, T/C", "setting": "[7]", "value": 1.98, "unit": "%"}, {"measurement": "viability, T/C", "setting": "[8]", "value": 2.41, "unit": "%"}]}, {"molecule": "CC(C)NCC(C(=O)N1CCN(c2ncnc3c2C(C)CC3O)CC1)c1ccc(Cl)cc1", "note": "(centres undefined) + CC(Nc1ncnc2nc[nH]c12)c1cc2cccc(Cl)c2c(=O)n1-c1ccccc1", "values": [{"measurement": "IC50", "setting": "second compound 0.0316 µM", "value": 1.15, "unit": "µM"}, {"measurement": "IC50", "setting": "second compound 0.1 µM", "value": 1.1, "unit": "µM"}, {"measurement": "IC50", "setting": "second compound 0.316 µM", "value": 0.991, "unit": "µM"}, {"measurement": "IC50", "setting": "second compound 1 µM", "value": 0.98, "unit": "µM"}, {"measurement": "IC50", "setting": "second compound 3.16 µM", "value": 0.916, "unit": "µM"}, {"measurement": "IC50", "setting": "second compound 10 µM", "value": 0.742, "unit": "µM"}, {"measurement": "viability, T/C", "setting": "[1]", "value": 99.4, "unit": "%"}, {"measurement": "viability, T/C", "setting": "[2]", "value": 89.4, "unit": "%"}, {"measurement": "viability, T/C", "setting": "second compound 0.0316 µM, first compound 0.316 µM", "value": 76.7, "unit": "%"}, {"measurement": "viability, T/C", "setting": "second compound 0.0316 µM, first compound 1 µM", "value": 54.5, "unit": "%"}, {"measurement": "viability, T/C", "setting": "second compound 0.0316 µM, first compound 3.16 µM", "value": 28.6, "unit": "%"}, {"measurement": "viability, T/C", "setting": "second compound 0.0316 µM, first compound 10 µM", "value": 22.1, "unit": "%"}, {"measurement": "viability, T/C", "setting": "[3]", "value": 97.9, "unit": "%"}, {"measurement": "viability, T/C", "setting": "[4]", "value": 81.1, "unit": "%"}, {"measurement": "viability, T/C", "setting": "second compound 0.1 µM, first compound 0.316 µM", "value": 77.4, "unit": "%"}, {"measurement": "viability, T/C", "setting": "second compound 0.1 µM, first compound 1 µM", "value": 49, "unit": "%"}, {"measurement": "viability, T/C", "setting": "second compound 0.1 µM, first compound 3.16 µM", "value": 33.2, "unit": "%"}, {"measurement": "viability, T/C", "setting": "second compound 0.1 µM, first compound 10 µM", "value": 21.7, "unit": "%"}, {"measurement": "viability, T/C", "setting": "[5]", "value": 83.3, "unit": "%"}, {"measurement": "viability, T/C", "setting": "[6]", "value": 83.1, "unit": "%"}, {"measurement": "viability, T/C", "setting": "second compound 0.316 µM, first compound 0.316 µM", "value": 85, "unit": "%"}, {"measurement": "viability, T/C", "setting": "second compound 0.316 µM, first compound 1 µM", "value": 48.3, "unit": "%"}, {"measurement": "viability, T/C", "setting": "second compound 0.316 µM, first compound 3.16 µM", "value": 38.1, "unit": "%"}, {"measurement": "viability, T/C", "setting": "second compound 0.316 µM, first compound 10 µM", "value": 20.7, "unit": "%"}, {"measurement": "viability, T/C", "setting": "[7]", "value": 95.4, "unit": "%"}, {"measurement": "viability, T/C", "setting": "[8]", "value": 98.1, "unit": "%"}, {"measurement": "viability, T/C", "setting": "second compound 1 µM, first compound 0.316 µM", "value": 65.3, "unit": "%"}, {"measurement": "viability, T/C", "setting": "second compound 1 µM, first compound 1 µM", "value": 51.5, "unit": "%"}, {"measurement": "viability, T/C", "setting": "second compound 1 µM, first compound 3.16 µM", "value": 33.6, "unit": "%"}, {"measurement": "viability, T/C", "setting": "second compound 1 µM, first compound 10 µM", "value": 20.5, "unit": "%"}, {"measurement": "viability, T/C", "setting": "second compound 3.16 µM, first compound 0.0316 µM", "value": 75.7, "unit": "%"}, {"measurement": "viability, T/C", "setting": "second compound 3.16 µM, first compound 0.1 µM", "value": 74.9, "unit": "%"}, {"measurement": "viability, T/C", "setting": "second compound 3.16 µM, first compound 0.316 µM", "value": 75, "unit": "%"}, {"measurement": "viability, T/C", "setting": "second compound 3.16 µM, first compound 1 µM", "value": 46.5, "unit": "%"}, {"measurement": "viability, T/C", "setting": "second compound 3.16 µM, first compound 3.16 µM", "value": 35.4, "unit": "%"}, {"measurement": "viability, T/C", "setting": "second compound 3.16 µM, first compound 10 µM", "value": 24.2, "unit": "%"}, {"measurement": "viability, T/C", "setting": "second compound 10 µM, first compound 0.0316 µM", "value": 71.3, "unit": "%"}, {"measurement": "viability, T/C", "setting": "second compound 10 µM, first compound 0.1 µM", "value": 69.2, "unit": "%"}, {"measurement": "viability, T/C", "setting": "second compound 10 µM, first compound 0.316 µM", "value": 59.6, "unit": "%"}, {"measurement": "viability, T/C", "setting": "second compound 10 µM, first compound 1 µM", "value": 46.3, "unit": "%"}, {"measurement": "viability, T/C", "setting": "second compound 10 µM, first compound 3.16 µM", "value": 30.4, "unit": "%"}, {"measurement": "viability, T/C", "setting": "second compound 10 µM, first compound 10 µM", "value": 16.6, "unit": "%"}]}]}
